The values below come from article PMC8706783 (Pharmaceutics, 2021).

The target in series [1] is T1, UGT1A6 (Homo sapiens, UniProt P19224).
T1 sequence (P19224 27-532): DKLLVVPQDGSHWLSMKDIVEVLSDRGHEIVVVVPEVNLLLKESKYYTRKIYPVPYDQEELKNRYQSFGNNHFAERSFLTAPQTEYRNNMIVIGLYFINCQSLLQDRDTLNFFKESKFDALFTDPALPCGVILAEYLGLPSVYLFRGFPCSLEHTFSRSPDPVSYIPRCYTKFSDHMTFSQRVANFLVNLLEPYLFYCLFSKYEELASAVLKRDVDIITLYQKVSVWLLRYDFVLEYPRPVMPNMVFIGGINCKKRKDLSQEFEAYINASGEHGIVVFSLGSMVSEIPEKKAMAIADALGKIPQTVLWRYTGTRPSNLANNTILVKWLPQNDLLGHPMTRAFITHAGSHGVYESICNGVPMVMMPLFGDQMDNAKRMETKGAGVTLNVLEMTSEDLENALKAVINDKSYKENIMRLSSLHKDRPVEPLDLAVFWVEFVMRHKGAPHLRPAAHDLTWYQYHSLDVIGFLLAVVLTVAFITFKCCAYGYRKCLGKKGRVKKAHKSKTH
As to the kind of experiment: Enzyme inhibition assay, UGT1A6. The conditions noted are these: Recombinant UGT1A6; 4-methylumbelliferone O-glucuronidation. It is filed as in vitro ADME.

The conditions of series [2]: women, cited from earlier work; for Cmax: plasma, ref IPM 028.
Series [3] has as its target T2, UGT1A3 (Homo sapiens, UniProt P35503).
T2 sequence (P35503 29-534): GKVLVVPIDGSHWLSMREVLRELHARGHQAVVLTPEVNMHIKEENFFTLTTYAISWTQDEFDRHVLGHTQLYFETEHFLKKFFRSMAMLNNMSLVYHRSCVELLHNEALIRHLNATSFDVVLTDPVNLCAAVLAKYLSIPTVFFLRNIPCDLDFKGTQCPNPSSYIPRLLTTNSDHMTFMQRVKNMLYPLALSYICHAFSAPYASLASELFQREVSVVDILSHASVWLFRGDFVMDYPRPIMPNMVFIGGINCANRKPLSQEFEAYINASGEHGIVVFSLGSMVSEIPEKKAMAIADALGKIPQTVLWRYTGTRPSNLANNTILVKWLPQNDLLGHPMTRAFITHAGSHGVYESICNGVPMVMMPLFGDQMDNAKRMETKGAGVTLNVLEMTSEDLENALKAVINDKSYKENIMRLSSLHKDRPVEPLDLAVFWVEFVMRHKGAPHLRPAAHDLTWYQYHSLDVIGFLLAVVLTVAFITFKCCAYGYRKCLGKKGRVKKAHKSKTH
As to the kind of experiment: Enzyme inhibition assay, UGT1A3. It is filed as in vitro ADME. Also noted: from tissue. The settings on record: HLM; UGT1A3 chenodeoxycholic acid 24 O-glucuronidation.

Series [4] deals with T3, CYP1A1 (Homo sapiens, UniProt P04798).
T3 sequence (P04798 1-512): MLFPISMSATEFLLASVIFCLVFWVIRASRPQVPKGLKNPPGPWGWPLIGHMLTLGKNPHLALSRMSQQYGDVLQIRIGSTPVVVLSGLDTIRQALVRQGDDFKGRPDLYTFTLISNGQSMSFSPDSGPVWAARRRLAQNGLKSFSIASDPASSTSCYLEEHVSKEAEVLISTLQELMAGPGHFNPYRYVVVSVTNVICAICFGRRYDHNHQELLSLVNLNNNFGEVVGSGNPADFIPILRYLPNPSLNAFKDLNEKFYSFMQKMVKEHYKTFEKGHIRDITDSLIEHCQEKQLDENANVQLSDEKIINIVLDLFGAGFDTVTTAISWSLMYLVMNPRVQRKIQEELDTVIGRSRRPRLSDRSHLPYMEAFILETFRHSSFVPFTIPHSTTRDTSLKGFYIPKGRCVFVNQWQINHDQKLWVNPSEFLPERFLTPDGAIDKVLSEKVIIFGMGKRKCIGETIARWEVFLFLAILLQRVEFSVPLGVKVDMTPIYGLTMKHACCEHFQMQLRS
Description: Enzyme inhibition assay, CYP1A1. The settings on record: Recombinant CYP1A1; phenacetin-O-deethylation. Also noted: purchased Xenotech LLC. It is filed as in vitro ADME.

Series [5] addresses T4, UGT1A7 (Homo sapiens, UniProt Q9HAW7).
T4 sequence (Q9HAW7 26-530): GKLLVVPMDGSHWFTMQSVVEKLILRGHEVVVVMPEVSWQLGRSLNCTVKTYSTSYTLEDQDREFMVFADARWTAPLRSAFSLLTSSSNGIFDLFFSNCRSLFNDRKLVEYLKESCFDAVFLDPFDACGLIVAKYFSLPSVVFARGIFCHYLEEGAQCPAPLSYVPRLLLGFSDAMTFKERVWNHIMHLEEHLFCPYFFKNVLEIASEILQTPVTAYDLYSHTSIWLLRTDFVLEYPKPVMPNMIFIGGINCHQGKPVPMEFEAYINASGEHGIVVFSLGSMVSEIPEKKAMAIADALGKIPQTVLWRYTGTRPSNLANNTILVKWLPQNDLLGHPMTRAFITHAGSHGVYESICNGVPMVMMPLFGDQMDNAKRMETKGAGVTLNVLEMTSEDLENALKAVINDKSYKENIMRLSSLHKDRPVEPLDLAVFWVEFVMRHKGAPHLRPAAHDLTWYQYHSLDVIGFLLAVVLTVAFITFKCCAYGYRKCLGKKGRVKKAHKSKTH
Description: Enzyme inhibition assay, UGT1A7.

Series [6] concerns the target T5, UGT1A8 (Homo sapiens, UniProt Q9HAW9).
T5 sequence (Q9HAW9 26-530): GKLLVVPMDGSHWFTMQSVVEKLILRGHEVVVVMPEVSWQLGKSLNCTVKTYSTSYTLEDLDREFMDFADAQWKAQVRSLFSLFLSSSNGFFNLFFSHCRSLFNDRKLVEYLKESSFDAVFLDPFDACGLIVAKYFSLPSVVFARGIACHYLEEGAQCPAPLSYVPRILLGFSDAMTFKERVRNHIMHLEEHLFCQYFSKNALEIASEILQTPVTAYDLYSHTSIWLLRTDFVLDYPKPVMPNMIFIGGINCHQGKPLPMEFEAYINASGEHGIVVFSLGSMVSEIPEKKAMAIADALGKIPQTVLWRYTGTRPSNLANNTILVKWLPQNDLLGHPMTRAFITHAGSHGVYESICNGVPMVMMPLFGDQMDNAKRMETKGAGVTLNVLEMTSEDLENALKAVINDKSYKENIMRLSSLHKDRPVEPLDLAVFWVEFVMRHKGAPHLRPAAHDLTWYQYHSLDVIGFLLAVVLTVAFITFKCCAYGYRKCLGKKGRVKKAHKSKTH
Description: Enzyme inhibition assay, UGT1A8.

Molecules are shown by their SMILES. Like-named read-outs stand apart in the source and are kept apart here. Some results are limits rather than exact numbers.

The IC50 is the concentration at which inhibition is half-maximal. As usually defined, the Cmax is the highest concentration seen after dosing. As to `Cc1cc(C)c(Nc2ccnc(Nc3ccc(C#N)cc3)n2)c(C)c1` [DPV, Dapivirine], the IC50 in series [1] was 19.6 µM; in series [3], 17 µM; in series [4], 0.5 µM; in series [5] it was 24.2 µM; in series [6] it was above 30 µM. Moreover, the “increase in systemic exposure to DPV” value in series [2] (concomitant use of DPV ring and MIC vaginal capsule compared to DPV ring alone) was 20%. Also, the Cmax in series [2] (after DPV ring administration alone) is 0.462 ± 0.288 ng/mL.
As a reminder, the Emax is the size of the effect at its maximum, as opposed to the concentration needed. For `Clc1ccc(COC(Cn2ccnc2)c2ccc(Cl)cc2Cl)c(Cl)c1` (centres unmarked) [MIC, miconazole], the IC50 in series [1] was 17.1 µM; in series [3], 13.6 µM; in series [4], 0.43 µM; in series [5], above 30 µM; in series [6] (Recombinant UGT1A8, 4-methylumbelliferone O-glucuronidation), “Apparent activation with MIC”. Further, the Cmax in series [2] (after MIC vaginal capsule alone) is reported as 7.61 ± 3.13 ng/mL. Further, in series [6] (human, recombinant UGT1A8, probe 4-methylumbelliferone (2 µM), glucuronidation), the maximum response (Emax) at 45 min was determined as 173%.
